Measured values published in ChEMBL document CHEMBL5257034, “Hybrid molecules: The privileged scaffolds for various pharmaceuticals” (Eur J Med Chem, 2016).
Values after ≈ are worked out from the molar mass of the structure shown.

How the values were obtained:
Mus musculus = experiment: Antiinflammatory activity against ear oedema mouse model assessed as inhibition of xylene induced edema; assay type: functional
Candida albicans [1] = experiment: Antifungal activity against Candida albicans; assay type: functional, organism-based
[2] = tested on: Mycobacterium tuberculosis; experiment: Antibacterial activity against Mycobacterium tuberculosis H37Rv (ATTCC 27294) by alamar blue based broth dilution assay; assay type: functional
[3] = tested on: Mycobacterium tuberculosis; experiment: Antibacterial activity against Mycobacterium tuberculosis H37Rv; assay type: functional
[4] = tested on: Mycobacterium tuberculosis; experiment: Antibacterial activity against Mycobacterium tuberculosis H37Rv assessed as reduction in relative light unit at 2 microg/ml incubated for 72 hrs by luciferase reporter phage assay relative to control; assay type: functional; design: scale not given: the % may be the effect or the level left; conditions: dose 2 µg/ml
[5] = tested on: Meyerozyma guilliermondii; experiment: Antifungal activity against Meyerozyma guilliermondii assessed as zone of inhibition; assay type: functional
Aspergillus niger [6] = experiment: Antifungal activity against Aspergillus niger ATCC 9029; assay type: functional
Pichia kudriavzevii = experiment: Antifungal activity against Candida krusei ATCC 6258; assay type: functional
Pichia norvegensis = experiment: Antifungal activity against Candida mycoderma incubated for 24 hrs; assay type: functional
Candida albicans [7] = experiment: Antifungal activity against Candida albicans ATCC 76615 incubated for 24 hrs by microbroth dilution method; assay type: functional
Candida albicans [8] = experiment: Antifungal activity against Candida albicans ATCC 2091; assay type: functional
MCF7 = experiment: Cytotoxicity against human MCF7 cells measured 24 hrs by MTT assay; assay type: functional, cell-based; conditions: MCF7, 24 h
[9] = tested on: Mycobacterium tuberculosis; experiment: Potency index, ratio of pyrazinamide MIC to test compound MIC for antibacterial activity against Mycobacterium tuberculosis H37Rv; assay type: functional
Aspergillus niger [10] = experiment: Antifungal activity against Aspergillus niger assessed as zone of inhibition; assay type: functional
Candida albicans [11] = experiment: Antifungal activity against Candida albicans assessed as zone of inhibition; assay type: functional
Plasmodium falciparum = experiment: Antiplasmodial activity against Plasmodium falciparum W2 infected in red blood cells (unknown origin) incubated for 72 hrs by LDH assay; assay type: functional, organism-based, Red blood cell; conditions: W2, Erythrocyte
[12] = tested on: Mycobacterium tuberculosis; experiment: Antibacterial activity against Mycobacterium tuberculosis H37Rv by alamar blue method; assay type: functional

SMILES: CSc1nc(-c2ccc(S(N)(=O)=O)cc2)n(-c2ccc(Cl)cc2)n1
- inhibition (INH) (Mus musculus): 80%

SMILES: C[C@@H]([C@H](N)C(=O)N[C@H](C(=O)O)[C@H]1O[C@@H](n2ccc(=O)[nH]c2=O)[C@H](O)[C@@H]1O)[C@H](O)c1ccc(O)cn1 [NIKKOMYCIN]
- IC50 (Candida albicans [1]): 0.393 µg/mL (≈ 0.793 µM)

SMILES: CCCCCCCCCCC(=O)N[C@H](C(=O)O)[C@H]1O[C@@H](n2ccc(=O)[nH]c2=O)[C@H](O)[C@@H]1O
- MIC (Candida albicans [1]): 40 µg/mL (≈ 87.8 µM)

SMILES: Cn1ccnc1-c1nn2cc(-c3ccc(-c4ccc([N+](=O)[O-])cc4)cc3)nc2s1
- MIC [2]: 3.14 µg/mL (≈ 7.8 µM)

SMILES: O=C1Nc2cc3c(-c4ccccc4)c(-c4ccccc4)oc(=O)c3cc2C(c2ccc(Cl)cc2)N1 (stereo unspecified)
- MIC [3]: 50 µg/mL

SMILES: CO[C@H]1/C=C/O[C@@]2(C)Oc3c(C)c(O)c4c(O)c(c(/C=N/N5CCN(C)CC5)c(O)c4c3C2=O)NC(=O)/C(C)=C\C=C\[C@H](C)[C@H](O)[C@@H](C)[C@@H](O)[C@@H](C)[C@H](OC(C)=O)[C@@H]1C [RIFAMPIN]
- Activity [4]: 87%

SMILES: CC1(C)CC[C@]2(C(=O)O)CC[C@]3(C)C(=CC[C@@H]4[C@@]5(C)CC[C@H](OC(=O)/C=C/c6ccccc6)C(C)(C)[C@@H]5CC[C@]43C)[C@@H]2C1
- inhibition zone (IZ) [5]: 31 mm

SMILES: O=C1Oc2cc(OCCN(N3CCOCC3)N3CCOCC3)ccc2C2c3ccccc3OC12 (stereo unspecified)
- MIC [3]: 3.12 µg/mL

SMILES: NNC(=O)c1ccncc1 [ISONIAZID]
- MIC [3]: 0.2 µg/mL

SMILES: OC(Cn1cncn1)(Cn1cncn1)c1ccc(F)cc1F [FLUCONAZOLE]
- MIC (Aspergillus niger [6]): 12.5 µg/mL (≈ 40.8 µM)
- MIC (Pichia kudriavzevii): 3.12 µg/mL (≈ 10.2 µM)
- MIC (Pichia norvegensis): 4 µg/mL (≈ 13.1 µM)
- MIC (Candida albicans [7]): 52.2 µg/mL (≈ 171 µM)
- MIC (Candida albicans [8]): 6.25 µg/mL (≈ 20.4 µM)
- inhibition zone (IZ) [5]: 21 mm

SMILES: COc1cc(/C=C/c2ccc(O)c(/C=N/NC(N)=S)c2)cc(OC)c1
- IC50 (MCF7): 25 µM

SMILES: O=C1Nc2ccccc2C12C(c1cccc([N+](=O)[O-])c1)C([N+](=O)[O-])C1CSCN12 (stereo unspecified)
- MIC [3]: 7.6 µM
- Ratio [9]: 6.7

SMILES: O=C(/C=C/c1ccc(Cl)cc1Cl)c1ccc(OCC(O)(Cn2cncn2)c2ccc(F)cc2F)cc1 (stereo unspecified)
- MIC50 (Candida albicans [1]): 0.12 µg/mL (≈ 0.226 µM)

SMILES: COC1=CC(=O)C[C@@H](C)[C@]12Oc1c(Cl)c(OC)cc(OC)c1C2=O [GRISEOFULVIN]
- inhibition zone (IZ) (Aspergillus niger [10]): 36 mm
- inhibition zone (IZ) (Candida albicans [11]): 39 mm

SMILES: COc1ccc(-c2nc(-c3ccccc3)c(-c3ccccc3)n2C(NN(c2ccccc2)c2cccc3ccccc23)c2ccccc2)c(OC)c1OC (stereo unspecified)
- inhibition zone (IZ) (Aspergillus niger [10]): 24 mm
- inhibition zone (IZ) (Candida albicans [11]): 20 mm

SMILES: NC(=O)OC[C@H](O)[C@@H](O)[C@H](N)C(=O)N[C@H](C(=O)O)[C@H]1O[C@@H](n2cc(C(=O)O)c(=O)[nH]c2=O)[C@H](O)[C@@H]1O
- MIC (Candida albicans [1]): 320 µg/mL (≈ 614 µM)

SMILES: CC[C@@H](CO)NCCN[C@@H](CC)CO [ETHAMBUTOL]
- MIC [3]: 7.6 µM

SMILES: O=C1Nc2cc3c(-c4ccccc4)c(-c4ccccc4)oc(=O)c3cc2C(c2ccccc2Cl)N1 (stereo unspecified)
- MIC [3]: 62.5 µg/mL

SMILES: Cc1cccc(C)c1Nc1nc(OCc2cn(CCCNc3cccc4cc(Cl)ccc34)nn2)nc(N(C)C)n1
- IC50 (Plasmodium falciparum): 730 nM

SMILES: COc1cc(Nc2nc(OCc3cn(CCNc4cccc5cc(Cl)ccc45)nn3)nc(N(C)C)n2)cc(OC)c1
- IC50 (Plasmodium falciparum): 1150 nM

SMILES: CS(=O)(=O)c1ccc(-c2nc(S(C)(=O)=O)nn2-c2ccc(Cl)cc2)cc1
- inhibition (INH) (Mus musculus): 77.2%

SMILES: Cc1cccc(C)c1Nc1nc(OCc2cn(CCNc3cccc4cc(Cl)ccc34)nn2)nc(N(C)C)n1
- IC50 (Plasmodium falciparum): 1690 nM

SMILES: O=C(O)c1cn(C2CC2)c2cc(N3CCNCC3)c(F)cc2c1=O [CIPROFLOXACIN]
- MIC [12]: 4.7 µg/mL (≈ 14.2 µM)
